Legend:
human EP4 [1] = molecular target: T1, human EP4 (Homo sapiens (Human), UniProt P35408); assay: In vitro human EP4 functional antagonist activity (PGE2-stimulated cAMP, HTRF); format: cell-based; settings: HEK293 cells expressing human EP4, PGE2 at EC80, n=5; read-out: IC50 measured at human EP4 (inhibition of PGE2-stimulated cAMP production)
Description: Assays are conducted in recombinant HEK293 cells stably expressing human EP4 receptor. The cell lines are maintained by culturing in DMEM with high glucose and pyridoxine hydrochloride (Invitrogen) supplemented with 10% fetal bovine serum (FBS), 1 mM sodium pyruvate, 10 mM HEPES, 500 μg/mL geneticin and 2 mM L-glutamine. Confluent cultures are grown at 37° C. in an atmosphere containing 5% CO2. Cells are harvested using 2.5% Trypsin-EDTA, suspended in freeze media (FBS with 6% DMSO) at 10^7 cells/mL and aliquots are stored in liquid nitrogen. Just before assay, cells are thawed in DMEM, centrifuged, and resuspended in cAMP buffer.
The inhibition of PGE2-stimulated cAMP production by EP4 antagonists is measured using HTRF (Cisbio catalogue #62AM4PEB). An aliquot equivalent to 4000 cells is incubated with 50 μL cAMP assay buffer containing PGE2 in a concentration predetermined to produce an EC80 (0.188 nM PGE2 from Sigma, catalog # P5640-10 mg) and EP4 antagonists at room temperature for 20 minutes. cAMP assay buffer contains 500 mL HBSS, 0.1% BSA, 20 mM HEPES and 200 μM IBMX (Sigma 15879). […] The HTRF signal is detected using an EnVision® plate reader (Perkin-Elmer) to calculate the ratio of fluorescence at 665 nm to that at 620 nm. […]
Target sequence in this assay (P35408 whole entry): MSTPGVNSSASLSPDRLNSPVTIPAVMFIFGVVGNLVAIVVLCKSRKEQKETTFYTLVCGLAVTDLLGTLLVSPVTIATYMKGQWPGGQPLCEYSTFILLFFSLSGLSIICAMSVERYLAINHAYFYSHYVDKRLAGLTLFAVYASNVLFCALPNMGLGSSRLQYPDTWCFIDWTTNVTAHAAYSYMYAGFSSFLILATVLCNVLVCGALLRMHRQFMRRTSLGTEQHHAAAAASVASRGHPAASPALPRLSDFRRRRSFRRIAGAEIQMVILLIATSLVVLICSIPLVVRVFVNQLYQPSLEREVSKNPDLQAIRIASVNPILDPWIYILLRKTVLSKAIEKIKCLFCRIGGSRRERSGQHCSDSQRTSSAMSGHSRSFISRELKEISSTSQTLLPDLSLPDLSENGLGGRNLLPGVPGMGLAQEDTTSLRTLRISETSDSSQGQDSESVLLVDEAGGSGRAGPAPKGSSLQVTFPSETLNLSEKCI

human EP4 [2] = molecular target: T1, human EP4; assay: In vitro antagonist activity in human whole blood (reversal of PGE2 inhibition of LPS-induced TNFα production); format: cell-based; settings: LPS 10 μg/mL with 10 nM PGE2, geometric mean±SD, n=11, read-out: IC50 in human blood TNFα induction assay
Description: The inhibitory effects of PGE2 on LPS-induced TNFα production from macrophages/monocytes are believed to be mediated by EP4 receptors (See Murase, A., et al., Life Sciences, 82:226-232 (2008)). The ability of the compound of Example 1 to reverse the inhibitory effect of PGE2 on LPS-induced TNFα production in human whole blood is an indicia of functional activity.
Blood is collected from normal volunteer donors into sodium heparin vacutainer tubes. Donors have not taken NSAIDs or celecoxib within 48 hours or glucocorticoids within two weeks prior to the donation. All tubes/donor are pooled into 50 mL Falcon conical centrifuge tubes and 98 μL/well is distributed into 96-well tissue culture plates (Falcon 3072). […] TNFα levels in 2 μL plasma are quantified by a commercially available enzyme immunoassay (R&D Systems DY210), using Immulon 4 HBX plates (Thermo 3855) and 3,3′,5,5′ tetramethylbiphenyl-4,4′-diamine substrate (KPL 50-76-03). The plates are read at A450-A650 on a plate reader (Molecular Devices Versamax) using SOFTmaxPRO (v. 4.3.1) software. IC50s are calculated using Graphpad Prism (v. 4) nonlinear regression, with sigmoidal dose response curve fitting. Results are expressed as the geometric mean±standard deviation; n=number of independent determinations.
Target sequence in this assay (P35408 whole entry, looked up): as the sequence (P35408 whole entry) above

human EP3 (isoform VI) = human EP3 (isoform VI) (Homo sapiens (Human), UniProt P43115); assay: In vitro binding to human EP3 ([3H]-PGE2 displacement, membranes); settings: HEK293 membranes, [3H]-PGE2, n = 1; read-out: hEP3, Ki
Sequence of human EP3 (isoform VI) (P43115 other isoform, or with tags, fused parts or gaps): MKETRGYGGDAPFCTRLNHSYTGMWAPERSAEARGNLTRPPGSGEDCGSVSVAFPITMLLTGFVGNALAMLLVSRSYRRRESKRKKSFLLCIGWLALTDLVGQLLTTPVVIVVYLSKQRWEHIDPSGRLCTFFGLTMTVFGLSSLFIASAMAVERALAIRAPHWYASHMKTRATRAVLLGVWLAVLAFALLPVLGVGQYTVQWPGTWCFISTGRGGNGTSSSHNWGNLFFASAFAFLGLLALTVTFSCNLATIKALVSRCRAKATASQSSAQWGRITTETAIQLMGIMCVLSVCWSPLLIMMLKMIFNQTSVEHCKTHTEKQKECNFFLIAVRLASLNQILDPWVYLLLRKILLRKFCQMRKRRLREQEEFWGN
Description: (§1) hEP1 and hEP4 membranes are prepared from recombinant HEK293 cells stably expressing the human EP1 (Genbank accession number AY275470) or EP4 (Genbank accession number AY429109) receptors. hEP2 and hEP3 membranes are prepared from HEK293 cells transiently transfected with EP2 (Genbank accession number AY275471) or EP3 (isoform VI: Genbank accession number AY429108) receptor plasmids. Frozen cell pellets are homogenized in homogenization buffer using a Teflon/glass homogenizer. Membrane protein is aliquoted and quick frozen on dry ice prior to storage at −80° C. Homogenization buffer contained 10 mM Tris-HCl, pH 7.4, 250 mM sucrose, 1 mM EDTA, 0.3 mM indomethacin and plus Complete™, with EDTA, obtained from Roche Molecular Biochemicals (Catalog Number 1 697 498).
(§2) Kd values for [3]H-PGE2 binding to each receptor are determined by saturation binding studies or homologous competition. […] Nonspecific binding is calculated by comparing binding in the presence and absence of 2 μM of PGE2. The membranes are harvested by filtration (TomTek harvester), washed 4 times with cold buffer (10 mM MES pH 6.0 with KOH, 10 mM MgCl2), dried in a 60° C. oven, and the radioactivity is quantified as counts per minute (CPM) using a TopCount detector. Percent specific binding is calculated as the percent of the binding in the absence of any inhibitor, corrected for binding in the presence of 2 μM of PGE2. […]

human EP2 = human EP2 (Homo sapiens (Human), UniProt P43116); assay: In vitro binding to human EP2 ([3H]-PGE2 displacement, membranes); settings: HEK293 membranes, [3H]-PGE2, n = 2; read-out: hEP2, Ki
Sequence of human EP2 (P43116 whole entry): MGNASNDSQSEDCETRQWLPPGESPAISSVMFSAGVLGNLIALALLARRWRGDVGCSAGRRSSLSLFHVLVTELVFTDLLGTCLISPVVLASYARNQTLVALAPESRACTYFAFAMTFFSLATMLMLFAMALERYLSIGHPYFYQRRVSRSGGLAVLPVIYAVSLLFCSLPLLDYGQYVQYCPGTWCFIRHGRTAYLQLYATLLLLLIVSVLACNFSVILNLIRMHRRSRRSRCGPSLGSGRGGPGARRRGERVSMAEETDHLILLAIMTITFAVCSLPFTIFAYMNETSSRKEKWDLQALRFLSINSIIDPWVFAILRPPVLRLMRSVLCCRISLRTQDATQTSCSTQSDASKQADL
Description: as §1, §2

rat EP4 = rat EP4 (Rattus norvegicus (Rat), UniProt P43114); assay: In vitro rat EP4 functional antagonist activity (PGE2-stimulated cAMP, HTRF); format: cell-based; settings: HEK293 cells expressing rat EP4, PGE2 at EC80, n=1; read-out: IC50 measured at rat EP4 (inhibition of PGE2-stimulated cAMP)
Sequence of rat EP4 (P43114 whole entry): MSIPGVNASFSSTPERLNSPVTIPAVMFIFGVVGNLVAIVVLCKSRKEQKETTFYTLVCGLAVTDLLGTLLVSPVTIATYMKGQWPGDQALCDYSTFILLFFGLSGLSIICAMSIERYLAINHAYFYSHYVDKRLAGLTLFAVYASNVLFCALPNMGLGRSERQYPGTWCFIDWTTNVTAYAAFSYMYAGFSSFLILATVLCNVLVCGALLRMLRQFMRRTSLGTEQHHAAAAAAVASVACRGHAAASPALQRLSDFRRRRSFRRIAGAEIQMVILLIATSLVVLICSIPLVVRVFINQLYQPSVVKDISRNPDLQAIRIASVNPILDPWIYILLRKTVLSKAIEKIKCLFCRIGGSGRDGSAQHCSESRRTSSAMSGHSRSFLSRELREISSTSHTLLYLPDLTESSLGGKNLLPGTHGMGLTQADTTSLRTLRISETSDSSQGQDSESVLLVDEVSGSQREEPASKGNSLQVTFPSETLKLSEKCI
Description: Rat EP4 cDNA (Genebank Accession# NM_03276) is cloned into pcDNA 3.1 vector and subsequently transfected in HEK293 cells for receptor expression. Rat EP4 stable clone is scaled up and then frozen down as cell bank for future compounds screening. To test EP4 antagonist compounds in rEP4 cells, thaw the frozen cells and then resuspend cells in cAMP assay buffer. The cAMP buffer is made by HBSS without Phenol Red (Hyclone, SH30268) supplemented with 20 mM HEPES (Hyclone, SH30237), 0.1% BSA (Gibco, 15260) and 125 μM IBMX (Sigma, 15879). The cells are plated into 96-well half area flat-bottom polystyrene black plates (Costar 3694). Compounds are serial diluted with DMSO to give 10-point concentration response curves. Then diluted compounds are added into cAMP assay buffer which contains PGE2 (Cayman 14010, in a concentration predetermined to produce an EC80) at ratio of DMSO/buffer at 1/100. The cells are treated with compounds in the presence of PGE2 (EC80 concentration) for 30 minutes at room temperature. The cAMP levels generated from the cells are quantified by a cAMP HTRF assay kit (Cisbio 62AM4PEC). The plates are read on an EnVision plate reader using HTRF optimized protocol (PerkinElmer). IC50s are calculated using Graphpad Prism (v. 4) nonlinear regression, sigmoidal dose response curve fitting.

human EP4 [3] = molecular target: T1, human EP4; assay: In vitro binding to human EP4 ([3H]-PGE2 displacement, membranes); settings: HEK293 membranes, [3H]-PGE2, n = 3; read-out: hEP4, Ki
Description: as §1, §2
Target sequence in this assay (P35408 whole entry, looked up): as the sequence (P35408 whole entry) above

human EP1 = human EP1 (Homo sapiens (Human), UniProt P34995); assay: In vitro binding to human EP1 ([3H]-PGE2 displacement, membranes); settings: HEK293 membranes, [3H]-PGE2, n = 1; read-out: hEP1, Ki
Sequence of human EP1 (P34995 whole entry): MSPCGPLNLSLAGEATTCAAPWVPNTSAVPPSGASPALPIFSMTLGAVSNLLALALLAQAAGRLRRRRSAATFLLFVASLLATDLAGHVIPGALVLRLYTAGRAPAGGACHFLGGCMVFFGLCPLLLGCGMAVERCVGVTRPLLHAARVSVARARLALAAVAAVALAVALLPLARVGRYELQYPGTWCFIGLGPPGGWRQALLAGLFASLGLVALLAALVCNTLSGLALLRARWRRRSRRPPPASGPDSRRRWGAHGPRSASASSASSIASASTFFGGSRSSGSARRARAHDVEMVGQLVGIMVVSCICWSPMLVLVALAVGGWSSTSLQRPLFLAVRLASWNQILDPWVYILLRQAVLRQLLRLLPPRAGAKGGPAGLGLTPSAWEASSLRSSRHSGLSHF
Description: as §1, §2

Question: With `CC(C)[C@@H](OCCOc1ccccc1)C(=O)N[C@@H](C)c1ccc(C(=O)O)cc1` [Example 1, 4-[(1S)-1-[[(2R)-3-methyl-2-(2-phenoxyethoxy)butanoyl]amino]ethyl]benzoic acid] as the molecule, how does the IC50 (human EP4 [1]) read?
Answer: 2.2 ± 1.7 nM

Question: And the IC50 (human EP4 [2])?
Answer: 20 ± 24 nM

Question: What about the Ki (human EP3 (isoform VI)) of the same molecule?
Answer: > 12700 nM

Question: What about the Ki (human EP2) of the same molecule?
Answer: 261 ± 108 nM

Question: And the IC50 (rat EP4)?
Answer: 2 nM

Question: And the Ki (human EP4 [3])?
Answer: 0.45 ± 0.26 nM

Question: What about the Ki (human EP1) of the same molecule?
Answer: > 17400 nM

From patent publication US9000043B2, “Phenoxyethoxy compounds” (Eli Lilly and Company, priority 2013, dated 2015)
